Assay results reported in patent US20150119363A1, “METHODS OF TREATING BACTERIAL INFECTIONS” (Rampex Pharmaceuticals, Inc., priority 2012, published 2015).

Assays:
Experiment in all cases: Dose titration biapenem potentiation assay (MPC1)
Conditions in all cases: biapenem 1 μg/mL
KP1008 KPC-2 = format: cell-based, Klebsiella pneumoniae
Experimental: (§1) The potency and spectrum of β-lactamase inhibitors is also determined by assessing their biapenem potentiation activity in a dose titration potentiation assay using strains expressing serine carbapemenases (such as KPC). The potentiation effect is observed as the ability of BLI compounds to inhibit growth in the presence of sub-inhibitory concentration of biapenem. […] Biapenem is present in the test medium at 1 μg/mL. Compounds tested at the highest concentration of 40 μg/mL. […] Table 5 summarizes BLI potency of biapenem potentiation (MPC1). Biapenem MIC for each strain is also shown.

KP1004 KPC-2 = format: cell-based, Klebsiella pneumoniae
Experimental: as §1

EC1007 KPC-3 = format: cell-based, Escherichia coli
Experimental: as §1

ECL1004 NMC-A = format: cell-based, Enterobacter cloacae
Experimental: as §1

N[C@H](C(=O)N[C@H]1CC[C@@H](CC(=O)O)OB1O)c1ccccc1 [Compound 33, 2-((3R,6S)-3-((S)-2-amino-2-phenylacetamido)-2-hydroxy-1,2-oxaborinan-6-yl)acetic acid]
BPM MPC1 KP1008 KPC-2 (KP1008 KPC-2): X (X = MPC1 of less than 1 μg/mL.)
BPM MPC1 KP1004 KPC-2 (KP1004 KPC-2): X (X = MPC1 of less than 1 μg/mL.)
BPM MPC1 EC1007 KPC-3 (EC1007 KPC-3): X (X = MPC1 of less than 1 μg/mL.)
BPM MPC1 ECL1004 NMC-A (ECL1004 NMC-A): X (X = MPC1 of less than 1 μg/mL.)

NCCC(=O)N[C@H]1CC[C@@H](CC(=O)O)OB1O [Compound 34, 2-((3R,6S)-3-(3-aminopropanamido)-2-hydroxy-1,2-oxaborinan-6-yl)acetic acid]
BPM MPC1 KP1008 KPC-2 (KP1008 KPC-2): X (X = MPC1 of less than 1 μg/mL.)
BPM MPC1 KP1004 KPC-2 (KP1004 KPC-2): X (X = MPC1 of less than 1 μg/mL.)
BPM MPC1 EC1007 KPC-3 (EC1007 KPC-3): X (X = MPC1 of less than 1 μg/mL.)
BPM MPC1 ECL1004 NMC-A (ECL1004 NMC-A): Y (Y = MPC1 of 1 μg/mL to 5 μg/mL.)

N[C@@H](CCC(=O)N[C@H]1CC[C@@H](CC(=O)O)OB1O)C(=O)O [Compound 35, (S)-2-amino-5-((3R,6S)-6-(carboxymethyl)-2-hydroxy-1,2-oxaborinan-3-ylamino)-5-oxopentanoic acid]
BPM MPC1 KP1008 KPC-2 (KP1008 KPC-2): X (X = MPC1 of less than 1 μg/mL.)
BPM MPC1 KP1004 KPC-2 (KP1004 KPC-2): X (X = MPC1 of less than 1 μg/mL.)
BPM MPC1 EC1007 KPC-3 (EC1007 KPC-3): X (X = MPC1 of less than 1 μg/mL.)
BPM MPC1 ECL1004 NMC-A (ECL1004 NMC-A): Y (Y = MPC1 of 1 μg/mL to 5 μg/mL.)

CC(C)(O/N=C(\C(=O)N[C@H]1CC[C@@H](CC(=O)O)OB1O)c1csc(N)n1)C(=O)O [Compound 36, 2-((Z)-1-(2-aminothiazol-4-yl)-2-((3R,6S)-6-(carboxymethyl)-2-hydroxy-1,2-oxaborinan-3-ylamino)-2-oxoethylideneaminooxy)-2-methylpropanoic acid]
BPM MPC1 KP1008 KPC-2 (KP1008 KPC-2): X (X = MPC1 of less than 1 μg/mL.)
BPM MPC1 KP1004 KPC-2 (KP1004 KPC-2): Z (Z = MPC1 of greater than 5 μg/mL.)
BPM MPC1 EC1007 KPC-3 (EC1007 KPC-3): Y (Y = MPC1 of 1 μg/mL to 5 μg/mL.)
BPM MPC1 ECL1004 NMC-A (ECL1004 NMC-A): X (X = MPC1 of less than 1 μg/mL.)

O=C(O)C[C@@H]1CC[C@H](NC(=O)c2ccccc2)B(O)O1 [Compound 37, 2-((3R,6S)-3-benzamido-2-hydroxy-1,2-oxaborinan-6-yl)acetic acid]
BPM MPC1 KP1008 KPC-2 (KP1008 KPC-2): X (X = MPC1 of less than 1 μg/mL.)
BPM MPC1 KP1004 KPC-2 (KP1004 KPC-2): X (X = MPC1 of less than 1 μg/mL.)
BPM MPC1 EC1007 KPC-3 (EC1007 KPC-3): X (X = MPC1 of less than 1 μg/mL.)
BPM MPC1 ECL1004 NMC-A (ECL1004 NMC-A): X (X = MPC1 of less than 1 μg/mL.)

O=C(O)C[C@@H]1CC[C@H](NC(=O)CCc2ccccc2)B(O)O1 [Compound 38, 2-((3R,6S)-2-hydroxy-3-(3-phenylpropanamido)-1,2-oxaborinan-6-yl)acetic acid]
BPM MPC1 KP1008 KPC-2 (KP1008 KPC-2): X (X = MPC1 of less than 1 μg/mL.)
BPM MPC1 KP1004 KPC-2 (KP1004 KPC-2): X (X = MPC1 of less than 1 μg/mL.)
BPM MPC1 EC1007 KPC-3 (EC1007 KPC-3): X (X = MPC1 of less than 1 μg/mL.)
BPM MPC1 ECL1004 NMC-A (ECL1004 NMC-A): X (X = MPC1 of less than 1 μg/mL.)

Nc1nc(CC(=O)N[C@H]2CC[C@@H](CC(=O)O)OB2O)cs1 [Compound 39, 2-((3R,6S)-3-(2-(2-aminothiazol-4-yl)acetamido)-2-hydroxy-1,2-oxaborinan-6-yl)acetic acid]
BPM MPC1 KP1008 KPC-2 (KP1008 KPC-2): X (X = MPC1 of less than 1 μg/mL.)
BPM MPC1 KP1004 KPC-2 (KP1004 KPC-2): X (X = MPC1 of less than 1 μg/mL.)
BPM MPC1 EC1007 KPC-3 (EC1007 KPC-3): X (X = MPC1 of less than 1 μg/mL.)
BPM MPC1 ECL1004 NMC-A (ECL1004 NMC-A): X (X = MPC1 of less than 1 μg/mL.)

CO/N=C(\C(=O)N[C@H]1CC[C@@H](CC(=O)O)OB1O)c1csc(N)n1 [Compound 40, 2-((3R,6S)-3-((Z)-2-(2-aminothiazol-4-yl)-2-(methoxyimino)acetamido)-2-hydroxy-1,2-oxaborinan-6-yl)acetic acid]
BPM MPC1 KP1008 KPC-2 (KP1008 KPC-2): X (X = MPC1 of less than 1 μg/mL.)
BPM MPC1 KP1004 KPC-2 (KP1004 KPC-2): Y (Y = MPC1 of 1 μg/mL to 5 μg/mL.)
BPM MPC1 EC1007 KPC-3 (EC1007 KPC-3): Y (Y = MPC1 of 1 μg/mL to 5 μg/mL.)
BPM MPC1 ECL1004 NMC-A (ECL1004 NMC-A): Y (Y = MPC1 of 1 μg/mL to 5 μg/mL.)

CSCCC(N)C(=O)N[C@H]1CC[C@@H](CC(=O)O)OB1O (stereo partly drawn) [Compound 41, 2-((3R,6S)-3-(2-amino-4-(methylthio)butanamido)-2-hydroxy-1,2-oxaborinan-6-yl)acetic acid]
BPM MPC1 KP1008 KPC-2 (KP1008 KPC-2): X (X = MPC1 of less than 1 μg/mL.)
BPM MPC1 KP1004 KPC-2 (KP1004 KPC-2): X (X = MPC1 of less than 1 μg/mL.)
BPM MPC1 EC1007 KPC-3 (EC1007 KPC-3): X (X = MPC1 of less than 1 μg/mL.)
BPM MPC1 ECL1004 NMC-A (ECL1004 NMC-A): Y (Y = MPC1 of 1 μg/mL to 5 μg/mL.)

NC(Cc1cccnc1)C(=O)N[C@H]1CC[C@@H](CC(=O)O)OB1O (stereo partly drawn) [Compound 42, 2-((3R,6S)-3-(2-amino-3-(pyridin-3-yl)propanamido)-2-hydroxy-1,2-oxaborinan-6-yl)acetic acid]
BPM MPC1 KP1008 KPC-2 (KP1008 KPC-2): X (X = MPC1 of less than 1 μg/mL.)
BPM MPC1 KP1004 KPC-2 (KP1004 KPC-2): X (X = MPC1 of less than 1 μg/mL.)
BPM MPC1 EC1007 KPC-3 (EC1007 KPC-3): X (X = MPC1 of less than 1 μg/mL.)
BPM MPC1 ECL1004 NMC-A (ECL1004 NMC-A): Y (Y = MPC1 of 1 μg/mL to 5 μg/mL.)

O=C(O)C[C@@H]1CC[C@H](NC(=O)Cc2cccnc2)B(O)O1 [Compound 43, 2-((3R,6S)-2-hydroxy-3-(2-(pyridin-3-yl)acetamido)-1,2-oxaborinan-6-yl)acetic acid]
BPM MPC1 KP1008 KPC-2 (KP1008 KPC-2): X (X = MPC1 of less than 1 μg/mL.)
BPM MPC1 KP1004 KPC-2 (KP1004 KPC-2): X (X = MPC1 of less than 1 μg/mL.)
BPM MPC1 EC1007 KPC-3 (EC1007 KPC-3): X (X = MPC1 of less than 1 μg/mL.)
BPM MPC1 ECL1004 NMC-A (ECL1004 NMC-A): X (X = MPC1 of less than 1 μg/mL.)

N[C@H](CCCN/C(=N/C(=O)OCc1ccccc1)NC(=O)OCc1ccccc1)C(=O)N[C@H]1CC[C@@H](CC(=O)O)OB1O [Compound 44, 2-((3R,6S)-3-((R)-2-amino-5-((Z)-2,3-bis(benzyloxycarbonyl)guanidino)pentanamido)-2-hydroxy-1,2-oxaborinan-6-yl)acetic acid]
BPM MPC1 KP1008 KPC-2 (KP1008 KPC-2): X (X = MPC1 of less than 1 μg/mL.)
BPM MPC1 KP1004 KPC-2 (KP1004 KPC-2): X (X = MPC1 of less than 1 μg/mL.)
BPM MPC1 EC1007 KPC-3 (EC1007 KPC-3): X (X = MPC1 of less than 1 μg/mL.)
BPM MPC1 ECL1004 NMC-A (ECL1004 NMC-A): Y (Y = MPC1 of 1 μg/mL to 5 μg/mL.)

O=C(O)C[C@@H]1CC[C@H](NC(=O)[C@@H]2CCCCN2)B(O)O1 [Compound 45, 2-((3R,6S)-2-hydroxy-3-((S)-piperidine-2-carboxamido)-1,2-oxaborinan-6-yl)acetic acid]
BPM MPC1 KP1008 KPC-2 (KP1008 KPC-2): X (X = MPC1 of less than 1 μg/mL.)
BPM MPC1 KP1004 KPC-2 (KP1004 KPC-2): Y (Y = MPC1 of 1 μg/mL to 5 μg/mL.)
BPM MPC1 EC1007 KPC-3 (EC1007 KPC-3): X (X = MPC1 of less than 1 μg/mL.)
BPM MPC1 ECL1004 NMC-A (ECL1004 NMC-A): Z (Z = MPC1 of greater than 5 μg/mL.)

O=C(O)C[C@@H]1CC[C@H](NC(=O)[C@H]2Cc3ccccc3CN2)B(O)O1 [Compound 46, 2-((3R,6S)-2-hydroxy-3-((R)-1,2,3,4-tetrahydroisoquinoline-3-carboxamido)-1,2-oxaborinan-6-yl)acetic acid]
BPM MPC1 KP1008 KPC-2 (KP1008 KPC-2): X (X = MPC1 of less than 1 μg/mL.)
BPM MPC1 KP1004 KPC-2 (KP1004 KPC-2): X (X = MPC1 of less than 1 μg/mL.)
BPM MPC1 EC1007 KPC-3 (EC1007 KPC-3): X (X = MPC1 of less than 1 μg/mL.)
BPM MPC1 ECL1004 NMC-A (ECL1004 NMC-A): X (X = MPC1 of less than 1 μg/mL.)

N=C(N)NCCC[C@@H](N)C(=O)N[C@H]1CC[C@@H](CC(=O)O)OB1O [Compound 47]
BPM MPC1 KP1008 KPC-2 (KP1008 KPC-2): X (X = MPC1 of less than 1 μg/mL.)
BPM MPC1 KP1004 KPC-2 (KP1004 KPC-2): Y (Y = MPC1 of 1 μg/mL to 5 μg/mL.)
BPM MPC1 EC1007 KPC-3 (EC1007 KPC-3): X (X = MPC1 of less than 1 μg/mL.)
BPM MPC1 ECL1004 NMC-A (ECL1004 NMC-A): Z (Z = MPC1 of greater than 5 μg/mL.)

NCCSCC(=O)N[C@H]1CC[C@@H](CC(=O)O)OB1O [Compound 48, 2-((3R,6S)-3-(2-(2-aminoethylthio)acetamido)-2-hydroxy-1,2-oxaborinan-6-yl)acetic acid]
BPM MPC1 KP1008 KPC-2 (KP1008 KPC-2): X (X = MPC1 of less than 1 μg/mL.)
BPM MPC1 KP1004 KPC-2 (KP1004 KPC-2): X (X = MPC1 of less than 1 μg/mL.)
BPM MPC1 EC1007 KPC-3 (EC1007 KPC-3): X (X = MPC1 of less than 1 μg/mL.)
BPM MPC1 ECL1004 NMC-A (ECL1004 NMC-A): X (X = MPC1 of less than 1 μg/mL.)

O=C(O)C[C@@H]1CC[C@H](NC(=O)c2cn(C3CC3)c3cc(N4CCNCC4)c(F)cc3c2=O)B(O)O1 [Compound 58, 2-((3R,6S)-3-(1-cyclopropyl-6-fluoro-4-oxo-7-(piperazin-1-yl)-1,4-dihydroquinoline-3-carboxamido)-2-hydroxy-1,2-oxaborinan-6-yl)acetic acid]
BPM MPC1 KP1008 KPC-2 (KP1008 KPC-2): Z (Z = MPC1 of greater than 5 μg/mL.)
BPM MPC1 KP1004 KPC-2 (KP1004 KPC-2): Z (Z = MPC1 of greater than 5 μg/mL.)
BPM MPC1 ECL1004 NMC-A (ECL1004 NMC-A): Z (Z = MPC1 of greater than 5 μg/mL.)

Nc1cc(CC(=O)N[C@H]2CC[C@@H](CC(=O)O)OB2O)ccn1 [Compound 61, 2-((3R,6S)-3-(2-(2-aminopyridin-4-yl)acetamido)-2-hydroxy-1,2-oxaborinan-6-yl)acetic acid]
BPM MPC1 KP1008 KPC-2 (KP1008 KPC-2): X (X = MPC1 of less than 1 μg/mL.)
BPM MPC1 KP1004 KPC-2 (KP1004 KPC-2): X (X = MPC1 of less than 1 μg/mL.)
BPM MPC1 ECL1004 NMC-A (ECL1004 NMC-A): X (X = MPC1 of less than 1 μg/mL.)
